Where a name gives a salt, the structure may show the parent alone.
Key:
Settings in all cases: activity in wells, two-fold serial dilution assay; higher well number indicates higher activity
shunt pathway = experiment: Test, Code 036 (C-shunt inhibitor), lysis of fragile human erythrocytes in autologous serum, cobra venom factor activated; assay type: cell-based
Source text: (§1) An active inhibitor protects C2 from C1 and C4; (ii) Test, Code 035 (C3-C9 inhibitor) -- This test determines the ability of the late components of human complement (C3-C9) to lyse EAC 142 in the presence of appropriate dilutions of the test compound. An active inhibitor protects EAC 142 from lysis by human C3-C9; (iii) Test, Code 036 (C-shunt inhibitor) -- In this test human erythrocytes rendered fragile are lysed in autologous serum via the shunt pathway activated by cobra venom factor in the presence of appropriate dilutions of the test compound. Inhibition of the shunt pathway results in failure of lysis; (iv) Forssman Vasculitis Test -- Here, the well known complement dependent lesion, Forssman vasculitis, is produced in guinea pigs by intradermal injection of rabbit anti-Forssman antiserum. The lesion is measured in terms of diameter, edema and hemorrhage and the extent to which a combined index of these is inhibited by prior intraperitoneal injection of the test compound at 200 mg/kg is then reported, unless otherwise stated; (v) Forssman Shock Test -- Lethal shock is produced in guinea pigs by an i.v. injection of anti-Forssman antiserum and the harmonic mean death time of treated guinea pigs is compared with that of simultaneous controls; (vi) Complement Level Reduction Test -- In this test, the above dosed guinea pigs, or others, are bled for serum and the complement level is determined in undiluted serum by the capillary tube method of U.S. Pat. No. 3,876,376 and compared to undosed control guinea pigs; and (vii) Cap 50 Test -- Here, appropriate amounts of the test compound are added to a pool of guinea pig serum in vitro, after which the undiluted serum capillary tube assay referred to above is run. The concentration of compound inhibiting 50% is reported.

[1] = system: late components of human complement (C3-C9); experiment: Test, Code 035 (C3-C9 inhibitor), lysis of EAC 142; assay type: biochemical
Source text: as §1

activated human C1 = molecular target: T1, activated human C1 (Homo sapiens, UniProt P09871); experiment: Test, Code 026 (C1 inhibitor); assay type: biochemical
T1 construct: fluid-phase C2 cleavage in presence of C4
Source text: as §1

T1 sequence (P09871 16-688): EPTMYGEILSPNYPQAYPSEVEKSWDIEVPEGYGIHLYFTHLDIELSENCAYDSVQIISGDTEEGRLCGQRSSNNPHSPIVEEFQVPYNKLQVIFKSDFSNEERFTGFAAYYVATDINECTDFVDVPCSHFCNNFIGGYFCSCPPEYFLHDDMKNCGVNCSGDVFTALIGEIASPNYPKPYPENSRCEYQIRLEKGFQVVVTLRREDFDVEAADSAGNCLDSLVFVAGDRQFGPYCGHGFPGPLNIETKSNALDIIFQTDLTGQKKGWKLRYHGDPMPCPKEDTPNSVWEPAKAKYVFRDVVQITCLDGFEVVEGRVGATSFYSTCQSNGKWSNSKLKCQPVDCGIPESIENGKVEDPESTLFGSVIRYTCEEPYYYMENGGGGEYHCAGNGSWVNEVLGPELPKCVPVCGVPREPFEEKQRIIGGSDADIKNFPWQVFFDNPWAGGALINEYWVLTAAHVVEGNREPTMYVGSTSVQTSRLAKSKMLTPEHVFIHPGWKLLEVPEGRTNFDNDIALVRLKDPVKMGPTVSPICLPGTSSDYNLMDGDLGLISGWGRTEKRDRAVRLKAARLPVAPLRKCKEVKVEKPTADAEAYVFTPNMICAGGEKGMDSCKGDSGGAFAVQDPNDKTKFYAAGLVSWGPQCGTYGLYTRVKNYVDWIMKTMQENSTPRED
T1 sequence (P00736 18-705 partner): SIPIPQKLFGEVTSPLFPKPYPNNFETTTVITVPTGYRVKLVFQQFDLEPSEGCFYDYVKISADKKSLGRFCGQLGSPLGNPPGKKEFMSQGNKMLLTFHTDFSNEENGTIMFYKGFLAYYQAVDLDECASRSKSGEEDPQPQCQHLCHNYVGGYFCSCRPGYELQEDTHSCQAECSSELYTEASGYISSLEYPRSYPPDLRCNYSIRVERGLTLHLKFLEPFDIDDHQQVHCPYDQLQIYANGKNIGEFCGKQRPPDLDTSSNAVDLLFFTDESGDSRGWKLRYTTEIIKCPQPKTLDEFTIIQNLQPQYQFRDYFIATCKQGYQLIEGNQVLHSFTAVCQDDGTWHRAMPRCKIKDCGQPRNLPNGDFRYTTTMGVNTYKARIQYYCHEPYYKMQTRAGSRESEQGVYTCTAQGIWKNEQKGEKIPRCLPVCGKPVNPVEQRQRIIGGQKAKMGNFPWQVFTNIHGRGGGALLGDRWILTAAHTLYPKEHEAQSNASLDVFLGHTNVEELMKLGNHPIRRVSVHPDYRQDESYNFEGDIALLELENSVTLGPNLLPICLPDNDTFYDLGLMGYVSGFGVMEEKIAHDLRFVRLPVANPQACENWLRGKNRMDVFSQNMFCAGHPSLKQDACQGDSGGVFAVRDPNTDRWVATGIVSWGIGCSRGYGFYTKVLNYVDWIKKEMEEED
T1 sequence (P02745 23-245 partner): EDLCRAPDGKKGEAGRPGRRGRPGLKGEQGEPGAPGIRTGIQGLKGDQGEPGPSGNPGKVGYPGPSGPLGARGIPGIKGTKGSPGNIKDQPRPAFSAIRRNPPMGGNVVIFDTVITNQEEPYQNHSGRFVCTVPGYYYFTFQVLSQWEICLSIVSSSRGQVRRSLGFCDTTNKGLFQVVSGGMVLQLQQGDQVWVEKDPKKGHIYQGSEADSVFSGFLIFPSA
T1 sequence (P02746 28-253 partner): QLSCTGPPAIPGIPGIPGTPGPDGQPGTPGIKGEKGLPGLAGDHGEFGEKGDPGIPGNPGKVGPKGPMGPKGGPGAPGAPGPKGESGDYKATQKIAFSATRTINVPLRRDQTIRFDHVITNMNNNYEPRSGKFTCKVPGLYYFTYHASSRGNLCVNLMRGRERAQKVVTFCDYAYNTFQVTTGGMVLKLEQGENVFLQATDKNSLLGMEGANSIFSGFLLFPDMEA
T1 sequence (P02747 29-245 partner): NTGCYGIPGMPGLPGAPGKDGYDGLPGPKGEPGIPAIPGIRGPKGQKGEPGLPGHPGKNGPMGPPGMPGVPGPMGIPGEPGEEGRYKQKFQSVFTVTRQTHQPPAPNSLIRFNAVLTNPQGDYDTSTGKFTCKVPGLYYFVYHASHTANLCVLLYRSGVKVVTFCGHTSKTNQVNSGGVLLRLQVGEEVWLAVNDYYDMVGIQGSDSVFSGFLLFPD

## Nc1cc(C(=O)Nc2cc(C(=O)O)c(O)c(S(=O)(=O)O)c2)cc(C(=O)Nc2cc(C(=O)O)c(O)c(S(=O)(=O)O)c2)c1 [5,5'-[5-Amino-1,3-phenylenebis(carbonylimino)]bis[3-sulfosalicylic acid]disodium salt]
Shunt pathway
  Shunt Inhibition 036 Wells: N
[1]
  C-Late 035 Wells: N
Activated human C1
  Cl 026 Wells: +2 Wells

## O=C(Nc1ccc(O)c(C(=O)O)c1)c1cc(C(=O)Nc2ccc(O)c(C(=O)O)c2)cc([N+](=O)[O-])c1 [5,5'-[5-Nitro-m-phenylenebis(carbonylimino)]disalicylic acid]
Shunt pathway
  Shunt Inhibition 036 Wells: N
[1]
  C-Late 035 Wells: N
Activated human C1
  Cl 026 Wells: α

## O=C(Nc1cc(C(=O)O)c(O)c(S(=O)(=O)O)c1)c1cc(C(=O)Nc2cc(C(=O)O)c(O)c(S(=O)(=O)O)c2)cc([N+](=O)[O-])c1 [5,5'-[(5-Nitro-1,3-phenylene)bis(carbonylimino)]bis[3-sulfosalicylic acid]disodium salt]
Shunt pathway
  Shunt Inhibition 036 Wells: N
[1]
  C-Late 035 Wells: N
Activated human C1
  Cl 026 Wells: +2 Wells
